Like-named read-outs stand apart in the source and are kept apart here.
Tests used:
[1] = system: aquatic and terrestrial organisms; settings: cited from earlier work
mice = settings: cited from earlier work
[2] = system: oral care and wound care pathogens; settings: background statement, organism not given; cited from earlier work
[3] = system: common oral care and wound care pathogens; test: In vitro broad spectrum comparison against common oral care and wound care pathogens, silver as positive control; assay type: cell-based; settings: for broad spectrum antimicrobial activity compared with silver: in vitro, common oral care and wound care pathogens
Description: The MIC of the antimicrobials was from literature review as well as in vitro studies in our lab with the five major oral care and five major wound care pathogens. In the literature typically only one bacteria was tested, thus, it was difficult to ascertain whether the target was a broad spectrum antimicrobial. Oral care pathogens tested include: Fusobacterium nucleatum ss vincentii, Porphyromonas gingivalis, Prevotella intermedia, Aggregatibacter actinomycetemcomitans and Streptococcus mutans. Wound care pathogens included: Pseudomonas aeruginosa, Streptococcus pyogenes, Staphylococcus aureus, Enterococcus faecalis, and Proteus mirabilis. For the JMP® SAS analysis the antimicrobial scoring was based on the MIC in μg/ml using the following point scale: 5) 1-10 μg/ml, 4) 11-25 μg/ml, 3) 26-50 μg/ml, 2) 51-100 μg/ml, 1) >101, and ND for not determined.
In order to directly compare the top potential Ecofriendly antimicrobial candidates from the JMP SAS multivariate analysis described above, we examined how some of these compounds (aloesin, zinc pyrithione, cinnamon, lemongrass, manuka honey, peppermint, jojoba oil) performed against common oral care and wound care pathogens, using silver as a positive control. […] Zinc pyrithione is commonly used as an antibacterial and antifungal, is safe for human use, and is a common ingredient in dandruff shampoo.

[4] = system: aquatic and terrestrial organisms; test: Eco-friendliness from ECOTOX database records; settings: point scale 5 to 1 from number of ECOTOX references
Description: Eco-friendliness ratings were based on the number of references from the ECOTOX database. The scoring used the following point scale: 5) no toxicity to aquatic and terrestrial organisms, 4) 1-10 result records, 3) 11-25, 2) 26-50, 1) >51, and ND for not determined. Commonly used compounds such as Triclosan and silver were given an unacceptable Ecofriendly score of 1.

[5] = US EPA ecotoxicology database, aquatic environment

Molecule	number of records/references in the ECOTOX database [1, 5]	LD50 (mice) [mg/day]	microbial inhibitory concentration (MIC) [2] [mg/L]	broad spectrum antimicrobial activity compared with silver [3]	number of records/references in the ECOTOX database [1]	log reduction of most bacterial pathogens ([3]; planktonic bacterial and bacterial biofilms) [fold log reduction]	Ecofriendly (ecotoxicology) score [4]
Oc1cc(Cl)ccc1Oc1ccc(Cl)cc1Cl [Triclosan, 5-Chloro-2-(2,4-dichlorophenoxy)phenol]	513	1.5	125	–	–	–	–
CC(=O)Cc1cc(=O)c2c(C)cc(O)c([C@@H]3O[C@H](CO)[C@@H](O)[C@H](O)[C@H]3O)c2o1 [aloesin]	–	–	–	inferior to silver	–	–	–
silver	–	–	7.5	–	5,266	5	–
zinc pyrithione	151	–	–	better than silver	–	–	1 (>51)
